Results reported in ChEMBL document CHEMBL1201862, “PubChem BioAssay data set” (2004).
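These data come from cells grown in 96-well plates and exposed to compound for 48 hours at five concentrations. The concentration for 50% growth inhibition is given as GI50.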 Activity calls are given as the source filed them. No stated cut-off is given here; in the data, active = GI50 up to about 1.1 µM and inactive = higher.

How the values were obtained:
Experiment in all cases: DTP human tumour cell line panel, 48 h
[1] = system: 786-0
[2] = system: HCT-116
[3] = system: K562
[4] = system: LOX IMVI
[5] = system: NCI-H23
[6] = system: RPMI-8226
[7] = system: SF-268
[8] = system: SF-295
[9] = system: SNB-19
[10] = system: SNB-75
[11] = system: SR
[12] = system: TK-10
[13] = system: U-251
[14] = system: UACC-62
[15] = system: BT-549
[16] = system: CAKI-1
[17] = system: DU-145
[18] = system: PC-3
[19] = system: MDA-N

Measured: GI50

CCOC(=O)C=C1CCN(C(=O)c2ccccc2)CC1
inactive: [1] > 100 µM | [2] > 100 µM | [3] > 100 µM | [4] > 100 µM | [5] > 100 µM | [6] > 100 µM | [7] > 100 µM | [8] > 100 µM | [9] > 100 µM | [10] > 100 µM | [11] 15.4 µM | [12] > 100 µM | [13] > 100 µM | [14] > 100 µM

Cc1ccc(NC(=O)CC(=O)N2N=C(N(c3ccccc3)c3ccccc3)CC2c2ccccc2)cc1 (stereo not drawn)
inactive: [1] > 100 µM | [15] > 100 µM | [16] > 100 µM | [17] > 100 µM | [2] > 100 µM | [3] > 100 µM | [5] > 100 µM | [18] 85.7 µM | [6] > 100 µM | [7] 75.7 µM | [8] > 100 µM | [9] > 100 µM | [10] 91.4 µM | [12] > 100 µM | [13] > 100 µM | [14] > 100 µM

Cc1cccc(/C=C2/C(=O)Nc3ccccc32)n1
inactive: [1] 13 µM | [15] 21.4 µM | [16] 11.9 µM | [17] 13.2 µM | [2] 12.2 µM | [3] 9.98 µM | [5] 10.4 µM | [18] 16.7 µM | [6] 14.7 µM | [7] 14.7 µM | [8] 17.9 µM | [9] 23.7 µM | [10] 28.8 µM | [12] 15.7 µM | [13] 15.7 µM

COc1ccccc1Nc1nc2c([nH]1)c(=O)n(C)c(=O)n2C
inactive: [1] > 10 µM | [16] > 10 µM | [17] > 10 µM | [3] > 10 µM | [4] > 10 µM | [19] > 10 µM | [5] > 10 µM | [18] > 10 µM | [6] > 10 µM | [7] > 10 µM | [8] > 10 µM | [10] > 10 µM | [11] > 10 µM | [12] > 10 µM | [14] > 10 µM

N#Cc1c(-c2ccc([N+](=O)[O-])cc2)c(C#N)c(=O)n(NS(=O)(=O)c2ccccc2)c1-c1ccccc1
inactive: [1] > 100 µM | [15] > 100 µM | [16] > 100 µM | [2] > 100 µM | [3] > 100 µM | [4] > 100 µM | [18] > 100 µM | [6] > 100 µM | [7] > 100 µM | [8] > 100 µM | [9] > 100 µM | [10] > 100 µM | [12] > 100 µM | [13] > 100 µM | [14] > 100 µM

N#CC(C#N)=Cn1c(=S)[nH]c2ccc([N+](=O)[O-])cc21
inactive: [1] > 100 µM | [16] 71.4 µM | [17] > 100 µM | [2] > 100 µM | [3] > 100 µM | [4] > 100 µM | [19] > 100 µM | [5] > 100 µM | [18] > 100 µM | [6] > 100 µM | [7] > 100 µM | [8] > 100 µM | [9] > 100 µM | [10] 15.2 µM | [11] > 100 µM | [12] > 100 µM | [13] > 100 µM | [14] > 100 µM
